Data from patent US8299093B2, “Small molecule inhibitors of retroviral assembly and maturation” (New York Blood Center, Inc., priority 2008, dated 2012).

Legend:
[1] = target: HIV-1 capsid (Human immunodeficiency virus type 1 group M subtype B, UniProt P04591); details: read-out: Binding affinity (Kd); cited from earlier work
[2] = test system: HIV-1; details: cited from earlier work
[3] = test system: HIV-1; assay: Inhibition of HIV-1 infectivity (p24 ELISA) in MT-2 cells, laboratory-adapted HIV-1 strains; assay type: cell-based
Protocol: (§1) AZT was used as a positive control in the infectivity assays. In brief, 1×10^4 MT-2 cells (lymphocytes) were infected with HIV-1 at 100 TCID50 (50% tissue culture infective dose, 0.01 MOI [multiplicity of infection]) in 200 μL RPMI 1640 medium containing 10% FBS in the presence or absence of small molecules at graded concentrations overnight. The culture supernatants were then removed and fresh media containing freshly prepared test compounds were added. On the fourth day post-infection, 100 μL of culture supernatants were collected from each well, mixed with equal volume of 5% TRITON X-100® and tested for p24 antigen by ELISA®.

[4] = XTT cytotoxicity assay in MT-2 cells; assay type: cell-based; details: human
Protocol: (§2) Briefly, for MT-2 cells, 100 μL of small molecule at graded concentrations was added to an equal volume of cells (5×10^4 cells/ml) in 96-well plates followed by incubation at 37° C. for 4 days, which ran parallel to the neutralization assay in MT-2 (except medium was added instead of virus). In the case of PBMC, 2.5×10^5 cells/mL were used and the cytotoxicity was measured after 7 days. After addition of XTT (PolySciences, Inc.), the soluble intracellular formazan was quantitated calorimetrically at 450 nm 4 hours later with a reference at 620 nm. The CC50 values were calculated.

[5] = XTT cytotoxicity assay in PBMC; assay type: cell-based; details: human
Protocol: as §2, with “Cytotoxicity of small molecules in cultures with MT-2 cells and PBMC was measured by the tetrazolium hydroxide XTT (sodium 3′-(1-(phenylamino)-carbonyl)-3,4-tetrazolium-bis(4-methoxy-6-nitro) benzenesulfonic acid hydrate) cytotoxicity assay, as previously described (Jiang et al., 2004). Briefly,” for “Briefly,”

[6] = test system: HIV-1 IIIB; assay: Antiviral activity (p24) against HIV-1 IIIB in MT-2; assay type: cell-based; details: Human immunodeficiency virus 1, subtype B, MT-2, X4, laboratory strain
Protocol: as §1, with “ELISA®. The IC50 values were calculated by the GraphPad Prism software (GraphPad Software®, Inc.) and the values were classified as IC50<10 μM and IC50>10 μM.” for “ELISA®.”
(§3) The molecules in Tables 3 include the calculated IC50 values and use “A1” to denote IC50<10 μM and “B1” to denote IC50>10 μM and “C1” to denote CC50<50 μM and “D1” to denote […].

[7] = test system: HIV-1 MN; assay: Antiviral activity (p24) against HIV-1 MN in MT-2; assay type: cell-based; details: Human immunodeficiency virus 1, subtype B, MT-2, X4, laboratory strain
Protocol: as §1, with “ELISA®. The IC50 values were calculated by the GraphPad Prism software (GraphPad Software®, Inc.) and the values were classified as IC50<10 μM and IC50>10 μM.” for “ELISA®.”
as §3

[8] = test system: HIV-1 SF2; assay: Antiviral activity (p24) against HIV-1 SF2 in MT-2; assay type: cell-based; details: Human immunodeficiency virus 1; SF2, subtype B, MT-2, R5X4, laboratory strain
Protocol: as §1, with “ELISA®. The IC50 values were calculated by the GraphPad Prism software (GraphPad Software®, Inc.) and the values were classified as IC50<10 μM and IC50>10 μM.” for “ELISA®.”
as §3

[9] = test system: HIV-1 RF; assay: Antiviral activity (p24) against HIV-1 RF in MT-2; assay type: cell-based; details: Human immunodeficiency virus 1, subtype B, MT-2, X4, laboratory strain
Protocol: as §1, with “ELISA®. The IC50 values were calculated by the GraphPad Prism software (GraphPad Software®, Inc.) and the values were classified as IC50<10 μM and IC50>10 μM.” for “ELISA®.”
as §3

[10] = test system: HIV-1 BaL; assay: Antiviral activity (p24) against HIV-1 BaL in PBMC; assay type: cell-based; details: Human immunodeficiency virus 1, subtype B, R5, laboratory strain
Protocol: as §1, with “ELISA®. The IC50 values were calculated by the GraphPad Prism software (GraphPad Software®, Inc.) and the values were classified as IC50<10 μM and IC50>10 μM.” for “ELISA®.”
(§4) Peripheral blood mononuclear cells (PBMCs) were isolated from the blood of healthy donors by standard density gradient centrifugation using Histopaque-1077 (Sigma). The cells were cultured at 37° C. for 2 hours. Nonadherent cells were collected and resuspended at 5×10^6 cells/ml RPMI-1640 medium containing 10% FBS, 5 μg/ml PHA, and 100 U/ml IL-2 (Sigma), followed by incubation at 37° C. for 3 days. The PHA-stimulated cells (5×10^4 cells/well) were infected with primary HIV-1 isolates at 500 TCID50 (0.01 MOI) in the absence or presence of small molecule inhibitor at graded concentrations. Culture media were changed every 3 days and replaced with fresh media containing freshly prepared inhibitor. The supernatants were collected 7 days post-infection and tested for p24 antigen by ELISA. The inhibition of p24 production in PBMC was measured over a range of concentrations and the concentration required to inhibit 50% (IC50) of the p24 production was calculated by the GraphPad Prism software.
as §3

[11] = test system: HIV-1 AZT-R; assay: Antiviral activity (p24) against RT-resistant isolate AZT-R in MT-2; assay type: cell-based; details: Human immunodeficiency virus 1
Protocol: as §1, with “ELISA®. The IC50 values were calculated by the GraphPad Prism software (GraphPad Software®, Inc.) and the values were classified as IC50<10 μM and IC50>10 μM.” for “ELISA®.”
as §3

[12] = test system: HIV-1RF/L-323-12-3; assay: Antiviral activity (p24) against protease resistant isolate HIV-1RF/L-323-12-3 in MT-2; assay type: cell-based; details: Human immunodeficiency virus 1
Protocol: as §1, with “ELISA®. The IC50 values were calculated by the GraphPad Prism software (GraphPad Software®, Inc.) and the values were classified as IC50<10 μM and IC50>10 μM.” for “ELISA®.”
as §3

[13] = test system: HIV-1 92US657; assay: Antiviral activity (p24) against primary isolate 92US657 in PBMC; assay type: cell-based; details: Human immunodeficiency virus 1, 92US657, subtype B, R5, primary isolate
Protocol: as §4, §3

[14] = test system: HIV-1 93IN101; assay: Antiviral activity (p24) against primary isolate 93IN101 in PBMC; assay type: cell-based; details: Human immunodeficiency virus 1, 93IN101, subtype C, R5, primary isolate
Protocol: as §4, §3

[15] = test system: HIV-1 93Br020; assay: Antiviral activity (p24) against primary isolate 93Br020 in PBMC; assay type: cell-based; details: Human immunodeficiency virus 1, 93Br020, subtype F, R5X4, primary isolate
Protocol: as §4, §3

[16] = test system: HIV-1 RU570; assay: Antiviral activity (p24) against primary isolate RU570 in PBMC; assay type: cell-based; details: Human immunodeficiency virus 1, RU570, subtype G, R5, primary isolate
Protocol: as §4, §3

[17] = test system: HIV-1 BCF02; assay: Antiviral activity (p24) against primary isolate BCF02 in PBMC; assay type: cell-based; details: Human immunodeficiency virus 1, BCF02, Group (O), R5, primary isolate
Protocol: as §4, §3

[18] = test system: Gag-Pol expressing 293 T cells; assay: Cell-based mature particle formation (VLP), electron microscopy of Gag-Pol transfected 293 T cells; design: species or system HIV-1
Protocol: In the cell-based system, the impact of NYAD-S6 on virus-like particle (VLP) release and morphology was analyzed by electron microscopy one day post-transfection with plasmid encoding Gag-Pol. Forty thousand 293 T cells were seeded per well in a 6-well plate on the day before transfection. […] The cells were then fixed in 3% glutaraldehyde in 100 mM sodium cacodylate for 1 hour and post-fixed in 1% OsO4 in 100 mM sodium cacodylate for another 1 hour. Specimens were then dehydrated through graded series of ethanol solutions and embedded in EPON® media. After staining with uranyl acetate and lead citrate, ultra-thin sections were examined under a Philips EM410 electron microscope.
In the case of untreated cells transfected with a Gag-Pol expression vector, a large number of mature particles containing electron-dense core structures were found (FIG. 2A).

[19] = test system: HIV-1; details: cited from earlier work; remark: listed apart in the source

In the case of `Cc1ccc(NC(=O)NCCSCc2ccc(CN(C)C)o2)cc1Cl` [CAP-1], the Kd [1] is listed as ~800 µM and the “HIV-1 inhibition in viral infectivity assays” value [2] is listed as “dose-dependent HIV-1 inhibition”.
In the case of `Cc1ccc2[nH]c(=O)c(CN(Cc3ccco3)C(=O)c3ccc(Cl)cc3)cc2c1` [NYAD-S6], the IC50 ([3]; Human immunodeficiency virus 1, MT2, 96 h, read-out: IC50 (concentration that provides 50% inhibition of HIV-1 p24), Table 1, formula I, MT-2 cells, p24 ELISA day 4) is reported as < 10 µM, the “Activity against a broad range of HIV-1 laboratory-adapted and primary isolates” value ([3]; including one RT-inhibitor-resistant and one protease-inhibitor-resistant isolate (summary of Table 3)) is reported as “consistently potent activity” and the CC50 at 4 days ([4]; MT-2 cells, 4 days) is reported as > 50 µM. The CC50 ([4]; Table 1, formula I, cell type not given, read-out: CC50 (concentration that causes 50% cytotoxicity)) was > 10 µM, the CC50 at 7 days [5] was > 50 µM and the IC50 [6] was < 10 µM. The IC50 [7] was < 10 µM, the IC50 [8] was < 10 µM and the IC50 [9] was < 10 µM. The IC50 [10] was < 10 µM, the IC50 [11] was < 10 µM and the IC50 [12] was < 10 µM. The IC50 [13] was < 10 µM, the IC50 [14] was < 10 µM and the IC50 [15] was < 10 µM. The IC50 [16] was < 10 µM, the IC50 [17] was < 10 µM and the “Formation of electron-dense core structures” value ([18]; 0.4 μM) was “markedly inhibited”. The “Formation of electron-dense core structures” value ([18]; 2 μM) was “markedly inhibited”, the “Formation of electron-dense core structures” value ([18]; 10 μM) was “markedly inhibited” and the Mature particle formation ([18]; FIGS. 2A-D, 0.4, 2 and 10 μM vs control) was “dramatic decrease in mature particle formation”.
For `C=C(C)[C@@H]1CC[C@]2(C(=O)O)CC[C@]3(C)[C@H](CC[C@@H]4[C@@]5(C)CC[C@H](OC(=O)CC(C)(C)C(=O)O)C(C)(C)[C@@H]5CC[C@]43C)[C@@H]12` [PA-457], the “Antiviral potency in cell culture” value [19] is given as “low nM”.
